Values quoted from earlier work as cited in patent publication US11173186B2, “Dosing regime and formulations for type B adenovirus” (PSIOXUS THERAPEUTICS LIMITED, priority 2013, dated 2021).

Conditions: interim analysis; intratumoural talimogene laherparepvec vs subcutaneous GM-CSF

GM-CSF: subcutaneously administered GM-CSF, comparator in the OPTiM trial
durable response rate: 2%
